Laboratory results from patent publication US11884682B2, “Compounds and their uses as MIF inhibitors” (NANJING IMMUNOPHAGE BIOTECH CO., LTD., priority 2020, dated 2024).

Target: MIF (Homo sapiens (Human), UniProt P14174)
Assay: MIF tautomerase assay using pHPP as substrate
Format: biochemical
Conditions: for Tautomerase Inhibition pIC50: cell-free, pHPP substrate 1.5 mM, MIF 3 nM, mean pIC50 of multiple test results
Method: Tautomerase Assay Using pHPP as substrate
This assay measured MIF's tautomerase activity in a cell-free system and was based on the determination of initial rates of the MIF-catalyzed conversion of the ketonic into the enolic tautomer of pHPP. This was achieved by spectrophotometric quantification of the complex between borate and the product of the reaction (enolic pHPP). The substrate was prepared by conversion of the enolic pHPP into its ketonic form. To achieve this, 0.5 M pHPP in methanol was diluted 10-fold with 50 mM sodium acetate buffer at pH 6.0, and then the suspension was shaken for 24 h at room temperature in darkness, and finally stored at 4° C. for not more than 1 week, with 5 min sonication being recommended before use.
Assays were performed in small-volume clear-bottom black 96 or 384-well polystyrene plates (Greiner Bio-One). First, 2 μL of the enzyme solution containing 6 nM of MIF in DPBS, 0.025% w/v BSA, and 300 μM CHAPS was dispensed onto sample and negative control wells using Multidrop Combi with metallic tip cassettes (Thermo Fisher Scientific) previously treated with Sigmacote. Then, 2 μL of the same buffer without MIF was dispensed onto positive control wells. The reaction was started by addition of the following to all wells: 2 μL of substrate solution containing 3 mM ketonic pHPP in 200 mM boric acid, 25 mM sodium phosphate, 0.025% w/v BSA, and 300 μM CHAPS at pH 6.0. In order to remove bubbles, the plate was centrifuged in an Allegra 25R centrifuge (Beckman Coulter, Inc., Brea, CA) at 1000 rpm for 2 min at room temperature. Then, the plate was read in an EnVision. Final concentrations of enzyme and substrate were 3 nM and 1.5 mM, respectively. Initial rates were calculated for each well as the slope of the absorbance progress curve.
The data mentioned below represents a mean pIC50 value of multiple test results. It is understood that the data illustrated below may have reasonable variation depending on the specific conditions and procedures used by the person conducting the testing.

MIF, sequence (P14174 2-115): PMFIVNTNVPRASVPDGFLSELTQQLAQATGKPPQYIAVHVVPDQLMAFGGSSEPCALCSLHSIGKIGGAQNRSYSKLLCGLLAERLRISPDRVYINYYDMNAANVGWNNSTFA

Compound	IC50 (read-out: Tautomerase Inhibition pIC50 (converted)) [nM]	Tautomerase Inhibition pIC50
COc1cc([C@H]2CC[C@H](C(=O)O)CC2)ccc1C(=O)Nc1nnc(-c2cccs2)o1 [Compound 28, Trans-4-(3-methoxy-4-((5-(thiophen-2-yl)-1,3,4-oxadiazol-2-yl)carbamoyl)phenyl)cyclohexane-1-carboxylic acid]	38	–
COc1cc(C2=CCC(C(=O)O)CC2)ccc1C(=O)Nc1nnc(-c2cccs2)o1 (stereo not shown) [Compound 29, 3′-methoxy-4′-((5-(thiophen-2-yl)-1,3,4-oxadiazol-2-yl)carbamoyl)-2,3,4,5-tetrahydro-[1,1′-biphenyl]-4-carboxylic acid]	–	8.14
COc1cc(N2CCCC2C(=O)O)ccc1C(=O)Nc1nnc(-c2cccs2)o1 (stereo not shown) [Compound 30, (3-methoxy-4-((5-(thiophen-2-yl)-1,3,4-oxadiazol-2-yl)carbamoyl)phenyl)proline]	–	7.90
COc1cc(N2CCCC(C(=O)O)C2)ccc1C(=O)Nc1nnc(-c2cccs2)o1 (stereo not shown) [Compound 31, 1-(3-methoxy-4-((5-(thiophen-2-yl)-1,3,4-oxadiazol-2-yl)carbamoyl)phenyl)piperidine-3-carboxylic Acid]	–	8.16
COc1cc(N2CC3CC(C2)O3)ccc1C(=O)Nc1nnc(-c2cccs2)o1 [Compound 33, 4-(6-oxa-3-azabicyclo[3.1.1]heptan-3-yl)-2-methoxy-N-(5-(thiophen-2-yl)-1,3,4-oxadiazol-2-yl)benzamide]	–	7.29
COc1cc(N2CCOCC2)ccc1S(=O)(=O)Nc1nnc(-c2cncs2)o1 [Compound 35, 2-methoxy-4-morpholino-N-(5-(thiazol-5-yl)-1,3,4-oxadiazol-2-yl)benzenesulfonamide]	–	<5
COc1cc(N2CCOCC2)ccc1C(=O)N(C)c1nnc(-c2cncs2)o1 [Compound 36, 2-methoxy-N-methyl-4-morpholino-N-(5-(thiazol-5-yl)-1,3,4-oxadiazol-2-yl)benzamide]	–	<5
COc1cc(N2CCOCC2)ccc1C(=O)Nc1nnc(-c2cccs2)o1 [Compound 37, 2-methoxy-4-morpholino-N-(5-(thiophen-2-yl)-1,3,4-oxadiazol-2-yl)benzamide]	–	7.44
O=C(NCc1nnc(-c2cccs2)o1)c1ccccc1OC(F)(F)F [Compound 41, N-((5-(thiophen-2-yl)-1,3,4-oxadiazol-2-yl)methyl)-2-(trifluoromethoxy)benzamide]	–	1.77
O=C(NCc1nnc(-c2cccs2)o1)c1ccccc1O [Compound 42, 2-hydroxy-N-((5-(thiophen-2-yl)-1,3,4-oxadiazol-2-yl)methyl)benzamide]	–	3.10
COc1cc(N2CC3CC(C2)O3)ccc1C(=O)NCc1nnc(-c2cccs2)o1 [Compound 57, 4-(6-oxa-3-azabicyclo[3.1.1]heptan-3-yl)-2-methoxy-N-((5-(thiophen-2-yl)-1,3,4-oxadiazol-2-yl)methyl)benzamide]	–	6.29

Results, then the compound that gave them:

IC50 (read-out: Tautomerase Inhibition pIC50 (converted)) [nM]	Tautomerase Inhibition pIC50	Compound
–	5.09	O=C(NCc1nnc(-c2cccs2)o1)c1ccccc1Cl [Compound 43, 2-chloro-N-((5-(thiophen-2-yl)-1,3,4-oxadiazol-2-yl)methyl)benzamide]
–	<5	O=C(NCc1nnc(-c2cccs2)o1)c1c(F)cccc1F [Compound 45, 2,6-difluoro-N-((5-(thiophen-2-yl)-1,3,4-oxadiazol-2-yl)methyl)benzamide]
–	<5	COc1cnccc1C(=O)NCc1nnc(-c2cccs2)o1 [Compound 47, 3-methoxy-N-((5-(thiophen-2-yl)-1,3,4-oxadiazol-2-yl)methyl)isonicotinamide]
–	<5	COc1ncccc1C(=O)NCc1nnc(-c2cccs2)o1 [Compound 48, 2-methoxy-N-((5-(thiophen-2-yl)-1,3,4-oxadiazol-2-yl)methyl)nicotinamide]
–	<5	O=C(NCc1nnc(-c2cccs2)o1)C1CCCCC1 [Compound 49, N-((5-(thiophen-2-yl)-1,3,4-oxadiazol-2-yl)methyl)cyclohexanecarboxamide]
–	<5	CN1CCC(C(=O)NCc2nnc(-c3cccs3)o2)CC1 [Compound 50, 1-methyl-N-((5-(thiophen-2-yl)-1,3,4-oxadiazol-2-yl)methyl)piperidine-4-carboxamide]
–	<5	CCN(Cc1nnc(-c2cccs2)o1)C(=O)c1ccc(N2CCOCC2)cc1OC [Compound 53, N-ethyl-2-methoxy-4-morpholino-N-((5-(thiophen-2-yl)-1,3,4-oxadiazol-2-yl)methyl)benzamide]
–	<5	COc1c(C(=O)NCc2nnc(-c3cccs3)o2)cccc1N1CCOCC1 [Compound 54, 2-methoxy-3-morpholino-N-((5-(thiophen-2-yl)-1,3,4-oxadiazol-2-yl)methyl)benzamide]
–	6.22	COc1cc(N2CC(C)OC(C)C2)ccc1C(=O)NCc1nnc(-c2cccs2)o1 (stereo not shown) [Compound 55, 4-(2,6-dimethylmorpholino)-2-methoxy-N-((5-(thiophen-2-yl)-1,3,4-oxadiazol-2-yl)methyl)benzamide]
–	<5	COc1cc(N2CCOCC2)ccc1C(=O)NCc1nnc(-c2ccns2)o1 [Compound 61, N-((5-(isothiazol-5-yl)-1,3,4-oxadiazol-2-yl)methyl)-2-methoxy-4-morpholinobenzamide]
–	<5	COc1cc(N2CCOCC2)ccc1C(=O)NCc1nnc(-c2nccs2)o1 [Compound 62, 2-methoxy-4-morpholino-N-((5-(thiazol-2-yl)-1,3,4-oxadiazol-2-yl)methyl)benzamide]
–	4.79	COc1cc(N2CCOCC2)ccc1C(=O)NCc1nnc(-c2ccc(Cl)s2)o1 [Compound 64, N-((5-(5-chlorothiophen-2-yl)-1,3,4-oxadiazol-2-yl)methyl)-2-methoxy-4-morpholinobenzamide]
–	<5	COc1cc(N2CCOCC2)ccc1C(=O)NC(C)(C)c1nnc(-c2cccs2)o1 [Compound 65, 2-methoxy-4-morpholino-N-(2-(5-(thiophen-2-yl)-1,3,4-oxadiazol-2-yl)propan-2-yl)benzamide]
–	<5	COc1cc(N2CCOCC2)ccc1C(=O)NC1(c2nnc(-c3cccs3)o2)CC1 [Compound 66, 2-methoxy-4-morpholino-N-(1-(5-(thiophen-2-yl)-1,3,4-oxadiazol-2-yl)cyclopropyl)benzamide]
–	3.23	COc1cc(N2CCOCC2)ccc1C(=O)N(C)C(C)(C)c1nnc(-c2cccs2)o1 [Compound 68, 2-methoxy-N-methyl-4-morpholino-N-(2-(5-(thiophen-2-yl)-1,3,4-oxadiazol-2-yl)propan-2-yl)benzamide]
–	6.12	COc1cc(OCCO)ccc1C(=O)NCc1nnc(-c2cccs2)o1 [Compound 70, 4-(2-hydroxyethoxy)-2-methoxy-N-((5-(thiophen-2-yl)-1,3,4-oxadiazol-2-yl)methyl)benzamide]
–	6.21	COCCOc1ccc(C(=O)NCc2nnc(-c3cccs3)o2)c(OC)c1 [Compound 71, 2-methoxy-4-(2-methoxyethoxy)-N-((5-(thiophen-2-yl)-1,3,4-oxadiazol-2-yl)methyl)benzamide]
